Read-outs that look alike come from different tables or passages of the source.
Columns and labels:
Assay in all cases: biochemical
Parameters in all cases: KINOMEscan scanMAX competition binding, DNA-tagged kinases, qPCR read-out, percent control at 300 nM
FGFR3 = FGFR3 (Homo sapiens, UniProt P22607)
CSNK1G3 = CSNK1G3 (Homo sapiens, UniProt Q9Y6M4)
PIK3C2G = target: T1, PIK3C2G (Homo sapiens, UniProt O75747)
T1 sequence (O75747 1-1486): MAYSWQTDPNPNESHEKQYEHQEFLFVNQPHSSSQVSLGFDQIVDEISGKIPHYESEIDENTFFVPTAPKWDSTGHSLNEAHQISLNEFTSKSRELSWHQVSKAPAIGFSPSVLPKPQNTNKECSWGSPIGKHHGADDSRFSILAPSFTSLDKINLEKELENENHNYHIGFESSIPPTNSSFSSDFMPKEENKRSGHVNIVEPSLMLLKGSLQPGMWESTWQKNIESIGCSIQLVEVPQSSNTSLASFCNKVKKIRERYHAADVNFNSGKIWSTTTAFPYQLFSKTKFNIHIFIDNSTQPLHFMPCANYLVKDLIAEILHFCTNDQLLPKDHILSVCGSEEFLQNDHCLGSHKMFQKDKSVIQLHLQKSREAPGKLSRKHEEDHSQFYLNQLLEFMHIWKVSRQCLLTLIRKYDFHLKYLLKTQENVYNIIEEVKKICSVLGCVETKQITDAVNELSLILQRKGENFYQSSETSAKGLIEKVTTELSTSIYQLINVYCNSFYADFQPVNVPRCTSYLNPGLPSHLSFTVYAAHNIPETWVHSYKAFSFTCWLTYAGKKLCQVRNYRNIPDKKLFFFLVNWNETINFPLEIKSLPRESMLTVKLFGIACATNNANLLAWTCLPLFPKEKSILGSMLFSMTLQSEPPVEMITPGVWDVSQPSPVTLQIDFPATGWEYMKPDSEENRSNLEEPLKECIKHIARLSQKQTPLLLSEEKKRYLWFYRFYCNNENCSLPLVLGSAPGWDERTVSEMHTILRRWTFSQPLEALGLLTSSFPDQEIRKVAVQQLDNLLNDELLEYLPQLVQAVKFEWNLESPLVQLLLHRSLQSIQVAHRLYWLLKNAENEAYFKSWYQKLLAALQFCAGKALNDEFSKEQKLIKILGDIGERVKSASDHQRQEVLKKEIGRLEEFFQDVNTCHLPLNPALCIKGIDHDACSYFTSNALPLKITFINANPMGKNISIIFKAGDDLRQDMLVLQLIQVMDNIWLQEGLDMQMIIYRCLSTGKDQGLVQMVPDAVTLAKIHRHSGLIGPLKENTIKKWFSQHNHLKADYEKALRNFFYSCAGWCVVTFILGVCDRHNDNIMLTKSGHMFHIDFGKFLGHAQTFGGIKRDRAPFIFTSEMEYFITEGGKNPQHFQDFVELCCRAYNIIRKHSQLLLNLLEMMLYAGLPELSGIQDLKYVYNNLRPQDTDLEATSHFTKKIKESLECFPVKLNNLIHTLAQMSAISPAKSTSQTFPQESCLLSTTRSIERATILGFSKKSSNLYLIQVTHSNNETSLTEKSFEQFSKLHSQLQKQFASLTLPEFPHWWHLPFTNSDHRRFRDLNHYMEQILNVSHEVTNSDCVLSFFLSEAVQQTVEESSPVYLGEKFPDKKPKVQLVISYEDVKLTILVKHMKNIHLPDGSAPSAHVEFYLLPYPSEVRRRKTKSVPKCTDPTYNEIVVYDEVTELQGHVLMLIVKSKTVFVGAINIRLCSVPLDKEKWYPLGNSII

PIK3CA(I800L) = PIK3CA(I800L) (Homo sapiens, UniProt P42336, I800L)
PIK3CA(I800L), sequence (P42336 whole entry I800L): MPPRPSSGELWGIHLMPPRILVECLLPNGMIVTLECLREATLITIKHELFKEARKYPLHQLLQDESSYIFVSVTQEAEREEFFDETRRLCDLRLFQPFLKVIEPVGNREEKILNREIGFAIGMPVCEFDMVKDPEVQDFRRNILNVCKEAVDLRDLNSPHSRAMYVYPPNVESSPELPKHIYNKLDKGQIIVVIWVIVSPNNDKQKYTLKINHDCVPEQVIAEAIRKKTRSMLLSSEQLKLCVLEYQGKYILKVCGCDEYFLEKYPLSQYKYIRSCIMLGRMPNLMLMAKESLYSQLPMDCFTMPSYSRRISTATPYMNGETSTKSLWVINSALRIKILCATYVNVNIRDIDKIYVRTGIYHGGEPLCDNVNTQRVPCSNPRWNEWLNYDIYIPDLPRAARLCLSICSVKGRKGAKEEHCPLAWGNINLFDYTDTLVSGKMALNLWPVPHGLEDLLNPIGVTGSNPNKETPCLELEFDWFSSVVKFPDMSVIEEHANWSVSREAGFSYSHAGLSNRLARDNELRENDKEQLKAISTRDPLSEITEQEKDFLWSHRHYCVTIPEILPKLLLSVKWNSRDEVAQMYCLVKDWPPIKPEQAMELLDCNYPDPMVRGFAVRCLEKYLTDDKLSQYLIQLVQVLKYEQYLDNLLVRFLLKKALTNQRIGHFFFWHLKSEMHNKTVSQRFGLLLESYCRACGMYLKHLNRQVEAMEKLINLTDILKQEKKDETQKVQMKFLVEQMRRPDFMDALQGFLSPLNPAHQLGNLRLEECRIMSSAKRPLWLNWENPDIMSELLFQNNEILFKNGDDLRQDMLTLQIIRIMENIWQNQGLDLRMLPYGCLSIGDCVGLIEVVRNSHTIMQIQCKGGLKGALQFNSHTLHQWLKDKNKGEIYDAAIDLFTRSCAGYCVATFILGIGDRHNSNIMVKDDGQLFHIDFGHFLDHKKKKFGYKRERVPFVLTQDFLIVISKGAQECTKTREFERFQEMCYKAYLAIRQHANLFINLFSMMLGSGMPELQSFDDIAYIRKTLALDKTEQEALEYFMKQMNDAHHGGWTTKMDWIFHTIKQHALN

MST1R = MST1R (Homo sapiens, UniProt Q04912)
MST1R, sequence (Q04912 whole entry): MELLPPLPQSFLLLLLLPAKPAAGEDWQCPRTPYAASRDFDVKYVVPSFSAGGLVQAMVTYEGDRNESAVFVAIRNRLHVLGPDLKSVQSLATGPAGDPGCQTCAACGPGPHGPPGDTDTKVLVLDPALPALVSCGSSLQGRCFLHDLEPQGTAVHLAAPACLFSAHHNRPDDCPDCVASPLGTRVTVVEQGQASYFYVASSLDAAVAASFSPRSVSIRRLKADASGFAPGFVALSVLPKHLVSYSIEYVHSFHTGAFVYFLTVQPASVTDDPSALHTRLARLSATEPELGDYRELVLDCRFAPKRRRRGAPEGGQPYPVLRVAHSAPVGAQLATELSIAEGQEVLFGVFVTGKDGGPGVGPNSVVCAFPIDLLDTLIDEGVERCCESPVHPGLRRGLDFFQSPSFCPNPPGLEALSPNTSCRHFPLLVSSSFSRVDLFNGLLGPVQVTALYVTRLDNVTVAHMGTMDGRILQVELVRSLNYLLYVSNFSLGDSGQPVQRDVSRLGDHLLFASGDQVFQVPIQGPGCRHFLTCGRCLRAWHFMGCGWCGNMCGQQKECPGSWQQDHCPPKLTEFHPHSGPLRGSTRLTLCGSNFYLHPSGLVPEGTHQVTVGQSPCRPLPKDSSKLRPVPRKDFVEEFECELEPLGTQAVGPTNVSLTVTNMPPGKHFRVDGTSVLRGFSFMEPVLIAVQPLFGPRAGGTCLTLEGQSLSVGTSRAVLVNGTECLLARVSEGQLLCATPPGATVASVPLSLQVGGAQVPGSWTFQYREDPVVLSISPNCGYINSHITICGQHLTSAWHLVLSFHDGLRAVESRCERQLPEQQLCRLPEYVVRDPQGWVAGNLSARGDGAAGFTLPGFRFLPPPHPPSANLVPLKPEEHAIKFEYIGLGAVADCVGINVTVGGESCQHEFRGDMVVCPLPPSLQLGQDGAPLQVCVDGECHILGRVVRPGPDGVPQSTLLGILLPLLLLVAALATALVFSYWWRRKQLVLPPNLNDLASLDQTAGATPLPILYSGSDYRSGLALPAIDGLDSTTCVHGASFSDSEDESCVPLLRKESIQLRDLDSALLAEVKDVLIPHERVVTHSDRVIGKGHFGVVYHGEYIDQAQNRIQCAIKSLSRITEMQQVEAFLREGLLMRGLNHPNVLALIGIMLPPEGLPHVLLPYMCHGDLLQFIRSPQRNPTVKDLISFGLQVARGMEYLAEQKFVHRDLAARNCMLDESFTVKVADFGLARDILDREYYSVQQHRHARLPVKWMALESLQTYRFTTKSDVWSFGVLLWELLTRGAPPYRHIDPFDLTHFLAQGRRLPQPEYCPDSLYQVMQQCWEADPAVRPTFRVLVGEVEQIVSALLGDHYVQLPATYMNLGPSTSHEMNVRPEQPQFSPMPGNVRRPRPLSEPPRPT

CAMK1D = CAMK1D (Homo sapiens, UniProt Q8IU85)
CAMK1D, sequence (Q8IU85 whole entry): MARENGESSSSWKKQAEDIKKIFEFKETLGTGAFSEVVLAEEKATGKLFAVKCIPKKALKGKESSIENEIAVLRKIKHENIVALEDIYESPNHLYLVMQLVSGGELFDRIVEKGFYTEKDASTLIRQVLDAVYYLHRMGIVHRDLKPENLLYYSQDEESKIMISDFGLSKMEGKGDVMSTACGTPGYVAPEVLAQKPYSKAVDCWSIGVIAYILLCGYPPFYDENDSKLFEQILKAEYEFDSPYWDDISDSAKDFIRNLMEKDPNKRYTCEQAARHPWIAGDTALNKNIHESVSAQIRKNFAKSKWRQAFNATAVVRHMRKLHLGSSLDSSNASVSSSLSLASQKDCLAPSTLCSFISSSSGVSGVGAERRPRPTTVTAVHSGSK

KIT(V559D,T670I) = KIT(V559D,T670I) (Homo sapiens, UniProt P10721, T670I/V559D)
KIT(V559D,T670I), sequence (P10721 whole entry V559D/T670I): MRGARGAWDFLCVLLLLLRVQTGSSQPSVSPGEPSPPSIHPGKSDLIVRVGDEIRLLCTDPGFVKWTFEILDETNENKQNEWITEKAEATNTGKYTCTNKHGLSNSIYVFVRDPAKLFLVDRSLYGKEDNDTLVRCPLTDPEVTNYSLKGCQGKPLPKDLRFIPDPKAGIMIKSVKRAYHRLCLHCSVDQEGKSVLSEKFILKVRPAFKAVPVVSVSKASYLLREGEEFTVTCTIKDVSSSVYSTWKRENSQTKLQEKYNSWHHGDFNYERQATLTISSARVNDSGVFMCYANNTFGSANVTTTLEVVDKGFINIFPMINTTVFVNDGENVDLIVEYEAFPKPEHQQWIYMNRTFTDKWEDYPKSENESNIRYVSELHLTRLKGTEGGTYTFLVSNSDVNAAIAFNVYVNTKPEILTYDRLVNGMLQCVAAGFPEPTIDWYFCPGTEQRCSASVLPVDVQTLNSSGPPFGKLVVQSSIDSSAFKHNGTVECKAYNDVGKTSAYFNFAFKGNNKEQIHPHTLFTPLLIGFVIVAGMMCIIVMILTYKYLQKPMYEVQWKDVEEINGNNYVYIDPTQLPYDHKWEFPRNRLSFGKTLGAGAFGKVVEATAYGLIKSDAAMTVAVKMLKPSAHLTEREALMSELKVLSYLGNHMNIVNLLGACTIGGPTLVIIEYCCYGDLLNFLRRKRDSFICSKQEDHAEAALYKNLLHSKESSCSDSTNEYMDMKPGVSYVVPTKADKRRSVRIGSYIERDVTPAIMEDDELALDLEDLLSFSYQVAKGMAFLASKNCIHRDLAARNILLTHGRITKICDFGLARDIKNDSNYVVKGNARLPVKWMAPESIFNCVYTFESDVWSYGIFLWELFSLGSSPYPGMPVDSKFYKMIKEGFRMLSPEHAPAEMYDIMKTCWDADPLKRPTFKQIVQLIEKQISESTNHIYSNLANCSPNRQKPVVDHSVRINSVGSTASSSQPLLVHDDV

[1] = read-out: Percent control / Tirabrutinib
[2] = read-out: Percent control / Ibrutinib
[3] = read-out: Percent control / Zanubrutinib
[4] = read-out: Percent control / Acalabrutinib

CSNK1G3, sequence (Q9Y6M4 whole entry): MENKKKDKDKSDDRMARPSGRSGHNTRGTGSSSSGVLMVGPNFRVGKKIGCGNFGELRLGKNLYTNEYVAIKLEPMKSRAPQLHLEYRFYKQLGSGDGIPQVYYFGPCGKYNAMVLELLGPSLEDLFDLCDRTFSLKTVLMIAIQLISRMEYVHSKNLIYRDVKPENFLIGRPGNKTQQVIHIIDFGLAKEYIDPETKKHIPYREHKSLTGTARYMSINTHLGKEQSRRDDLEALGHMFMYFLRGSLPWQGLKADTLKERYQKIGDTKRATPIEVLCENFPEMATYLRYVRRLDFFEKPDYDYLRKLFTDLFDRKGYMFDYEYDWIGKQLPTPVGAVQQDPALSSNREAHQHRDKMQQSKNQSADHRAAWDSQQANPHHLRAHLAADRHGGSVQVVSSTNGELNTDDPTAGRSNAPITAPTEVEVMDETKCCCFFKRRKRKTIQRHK
FGFR3, sequence (P22607 whole entry): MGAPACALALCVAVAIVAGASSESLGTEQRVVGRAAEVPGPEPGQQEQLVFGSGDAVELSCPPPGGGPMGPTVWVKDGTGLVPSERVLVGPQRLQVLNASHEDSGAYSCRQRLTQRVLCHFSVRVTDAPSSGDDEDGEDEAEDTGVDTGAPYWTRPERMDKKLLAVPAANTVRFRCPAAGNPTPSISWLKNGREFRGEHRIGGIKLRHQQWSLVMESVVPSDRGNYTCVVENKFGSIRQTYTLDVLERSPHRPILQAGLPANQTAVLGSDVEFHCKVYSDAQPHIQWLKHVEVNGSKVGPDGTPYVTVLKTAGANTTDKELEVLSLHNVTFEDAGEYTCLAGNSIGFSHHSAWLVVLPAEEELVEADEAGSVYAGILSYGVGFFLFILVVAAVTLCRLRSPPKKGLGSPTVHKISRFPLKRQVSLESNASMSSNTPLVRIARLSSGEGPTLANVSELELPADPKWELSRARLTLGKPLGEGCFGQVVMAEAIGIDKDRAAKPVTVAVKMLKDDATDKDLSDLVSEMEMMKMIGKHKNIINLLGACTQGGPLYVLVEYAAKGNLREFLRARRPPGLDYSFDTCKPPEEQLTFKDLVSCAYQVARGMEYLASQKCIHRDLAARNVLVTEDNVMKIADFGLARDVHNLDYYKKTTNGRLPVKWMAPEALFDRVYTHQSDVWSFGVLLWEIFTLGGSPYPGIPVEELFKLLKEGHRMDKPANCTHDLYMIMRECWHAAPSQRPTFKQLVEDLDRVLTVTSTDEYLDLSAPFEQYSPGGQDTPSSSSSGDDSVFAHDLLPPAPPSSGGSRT

Q: How did the remaining binding at 0.3 µM (FGFR3; [1]) turn out when `CC#CC(=O)N1CC[C@@H](n2c(=O)n(-c3ccc(Oc4ccccc4)cc3)c3c(N)ncnc32)C1` [Tirabrutinib] was run?
A: 92%

Q: And the remaining binding at 0.3 µM (CSNK1G3; [1])?
A: 99%

Q: And the remaining binding at 0.3 µM (PIK3C2G; [1])?
A: 98%

Q: And the remaining binding at 0.3 µM (PIK3CA(I800L); [1])?
A: 91%

Q: And the remaining binding at 0.3 µM (MST1R; [1])?
A: 98%

Q: What about the remaining binding at 0.3 µM (CAMK1D; [1]) of the same molecule?
A: 99%

Q: What about the remaining binding at 0.3 µM (KIT(V559D,T670I); [1]) of the same molecule?
A: 98%

Q: What does the source list for `C=CC(=O)N1CCC[C@@H](n2nc(-c3ccc(Oc4ccccc4)cc3)c3c(N)ncnc32)C1` [Ibrutinib]?
A: remaining binding at 0.3 µM (PIK3C2G; [2]): 97%; remaining binding at 0.3 µM (PIK3CA(I800L); [2]): 71%; remaining binding at 0.3 µM (MST1R; [2]): 90%; remaining binding at 0.3 µM (CAMK1D; [2]): 97%

Q: What does the source list for `C=CC(=O)N1CCC([C@@H]2CCNc3c(C(N)=O)c(-c4ccc(Oc5ccccc5)cc4)nn32)CC1` [Zanubrutinib]?
A: remaining binding at 0.3 µM (FGFR3; [3]): 93%; remaining binding at 0.3 µM (CSNK1G3; [3]): 90%; remaining binding at 0.3 µM (PIK3C2G; [3]): 74%; remaining binding at 0.3 µM (PIK3CA(I800L); [3]): 68%; remaining binding at 0.3 µM (MST1R; [3]): 98%; remaining binding at 0.3 µM (CAMK1D; [3]): 81%; remaining binding at 0.3 µM (KIT(V559D,T670I); [3]): 62%

Q: With `CC#CC(=O)N1CCC[C@H]1c1nc(-c2ccc(C(=O)Nc3ccccn3)cc2)c2c(N)nccn12` [Acalabrutinib] as the molecule, how does the remaining binding at 0.3 µM (FGFR3; [4]) read?
A: 95%

Q: What about the remaining binding at 0.3 µM (CSNK1G3; [4]) of the same molecule?
A: 91%

Q: And the remaining binding at 0.3 µM (PIK3C2G; [4])?
A: 74%

Q: What about the remaining binding at 0.3 µM (MST1R; [4]) of the same molecule?
A: 91%

Q: And the remaining binding at 0.3 µM (CAMK1D; [4])?
A: 71%

Q: And the remaining binding at 0.3 µM (KIT(V559D,T670I); [4])?
A: 78%

Source: article PMC10004634 (PLOS ONE, 2023)
